From patent publication US11414450B1, “Aminoglycosides and uses thereof” (REVAGENIX, INC., priority 2017, dated 2022)
≈ marks a conversion by molar mass, not a printed value.

What was measured:
Type in all cases: cell-based
E. coli ATCC 25922 = experiment: Minimum inhibitory concentration (broth microdilution, CLSI), E. coli ATCC 25922; conditions: for Geometric Mean MIC values, E. coli ATCC 25922: Table 2
Description: (§1) Minimum inhibitory concentrations for the example compounds herein are determined by the broth microdilution method in accordance with the Clinical and Laboratory Standards Institute (CLSI) guidelines. In brief, organism suspensions are adjusted to a 0.5 McFarland standard to yield a final inoculum between 3×10^5 and 7×10^5 colony-forming units (CFU)/mL. Compound dilutions and inocula are made in sterile, cation adjusted Mueller-Hinton Broth (Beckton Dickinson). The inoculum is prepared by suspension of a colony from an agar plate that is prepared the previous day. Bacteria are suspended in sterile saline and added to each assay plate to obtain a final concentration of 5×10^5 CFU/mL. An inoculum volume of 100 μL is added to wells containing 100 μL of broth with 2-fold serial dilutions of the compound. All inoculated microdilution trays are incubated in ambient air at 35° C. for 18-24 hours. Following incubation, the lowest concentration of the compound that prevents visible growth (OD 600 nm<0.05) is recorded as the MIC. […] Performance of the assay is monitored by the use of laboratory quality-control strains and a compound with a defined MIC spectrum (such as levofloxacin), in accordance with CLSI guidelines. Compounds are tested against multiple microbiologic panels. Panels include: 1) a multi-species primary screening panel that includes multiple defined AG-R mechanisms; 2) a panel of isogenic strains carrying different common mechanisms of AG-R that allows characterization of the SAR for AMEs, RMTs, and entry and efflux resistance mechanisms; and 3) panels of recent clinical isolates selected from Phase 3 studies and ongoing global surveillance.

E. coli efflux parent = experiment: MIC broth microdilution, E. coli efflux parent strain; conditions: for Geometric Mean MIC values, E. coli efflux parent: Table 2
Description: as §1

[1] = tested on: E. coli Δefflux (tolC efflux pump knocked-out); experiment: MIC broth microdilution, E. coli Δefflux strain (tolC knocked out)
Description: as §1

[2] = tested on: E. coli isogenic strain empty vector; experiment: MIC broth microdilution, E. coli isogenic strain, empty vector; conditions: for Geometric Mean MIC values, E. coli isogenic strains, empty vector: Table 2
Description: as §1

[3] = tested on: E. coli isogenic strain aac(6′)-Ib; experiment: MIC broth microdilution, E. coli isogenic strain aac(6′)-Ib; conditions: for Geometric Mean MIC values, E. coli isogenic strains, aac(6′)-Ib: Table 2
Description: as §1

[4] = tested on: E. coli isogenic strain aph(3′)-II; experiment: MIC broth microdilution, E. coli isogenic strain aph(3′)-II; conditions: for Geometric Mean MIC values, E. coli isogenic strains, aph(3′)-II: Table 2
Description: as §1

[5] = tested on: E. coli isogenic strain aph(3′)-Ia; experiment: MIC broth microdilution, E. coli isogenic strain aph(3′)-Ia; conditions: for Geometric Mean MIC values, E. coli isogenic strains, aph(3′)-Ia: Table 2, aph(3′)-Ia has activity at both the 3′-hydroxy and 5″-hydroxy positions
Description: as §1

[6] = tested on: E. coli isogenic strain ant(4′)-Ia; experiment: MIC broth microdilution, E. coli isogenic strain ant(4′)-Ia; conditions: for Geometric Mean MIC values, E. coli isogenic strains, ant(4′)-Ia: Table 2
Description: as §1

[7] = tested on: E. coli isogenic strain armA; experiment: MIC broth microdilution, E. coli isogenic strain armA; conditions: for Geometric Mean MIC values, E. coli isogenic strains, armA: Table 2
Description: as §1

[8] = tested on: E. coli isogenic strain nmpA; experiment: MIC broth microdilution, E. coli isogenic strain nmpA; conditions: for Geometric Mean MIC values, E. coli isogenic strains, nmpA: Table 2
Description: as §1

SMILES	Geometric Mean MIC values, E. coli ATCC 25922 (E. coli ATCC 25922)	Geometric Mean MIC values, E. coli efflux parent (E. coli efflux parent)	Geometric Mean MIC values, E. coli Δefflux ([1]; Table 2)	Geometric Mean MIC values, E. coli isogenic strains, empty vector [2]	Geometric Mean MIC values, E. coli isogenic strains, aac(6′)-Ib [3]	Geometric Mean MIC values, E. coli isogenic strains, aph(3′)-II [4]	Geometric Mean MIC values, E. coli isogenic strains, aph(3′)-Ia [5]	Geometric Mean MIC values, E. coli isogenic strains, ant(4′)-Ia [6]	Geometric Mean MIC values, E. coli isogenic strains, armA [7]	Geometric Mean MIC values, E. coli isogenic strains, nmpA [8]	MIC (E. coli ATCC 25922; Escherichia coli, ATCC25922, E. coli ATCC 25922, broth microdilution, read-out: Geometric Mean MIC values, E. coli ATCC 25922)	MIC (E. coli efflux parent; Escherichia coli, E. coli efflux parent strain, read-out: Geometric Mean MIC values, E. coli efflux parent)	Geometric Mean MIC values, E. coli Δefflux ([1]; E. coli Δefflux)	MIC ([2]; Escherichia coli, read-out: Geometric Mean MIC values, E. coli isogenic strains empty vector)	MIC ([3]; Escherichia coli, read-out: Geometric Mean MIC values, E. coli isogenic strains aac(6′)-Ib)	MIC ([4]; Escherichia coli, read-out: Geometric Mean MIC values, E. coli isogenic strains aph(3′)-II)	MIC ([5]; Escherichia coli, read-out: Geometric Mean MIC values, E. coli isogenic strains aph(3′)-Ia)	MIC ([6]; Escherichia coli, read-out: Geometric Mean MIC values, E. coli isogenic strains ant(4′)-Ia)	MIC ([7]; Escherichia coli, read-out: Geometric Mean MIC values, E. coli isogenic strains armA)	MIC ([8]; Escherichia coli, read-out: Geometric Mean MIC values, E. coli isogenic strains npmA)
NCC1CCC(N)C(OC2C(N)CC(N)C(O)C2OC2OC(CO)C(OC3OC(CN)C(O)C(O)C3N)C2O)O1 (centres unmarked) [drawing 856, reference compound]	1.1 µg/mL	0.87 µg/mL	0.87 µg/mL	0.61 µg/mL	5.7 µg/mL	0.35 µg/mL	64 µg/mL	0.5 µg/mL	0.74 µg/mL	>64 µg/mL										
NCC1OC(OC2C(CO)OC(OC3C(O)C(N)CC(N)C3OC3OC(CN)C(O)C(F)C3O)C2O)C(N)C(O)C1O (centres unmarked) [drawing 867]	2 µg/mL	1.4 µg/mL	1 µg/mL	2 µg/mL	>64 µg/mL	1.4 µg/mL	64 µg/mL	64 µg/mL	2.8 µg/mL	>64 µg/mL										
NC[C@@H]1CC[C@@H](N)[C@@H](O[C@@H]2[C@@H](N)[C@H](O)[C@@H](N)[C@H](O)[C@H]2O[C@@H]2O[C@H](CO)[C@@H](O[C@H]3O[C@@H](CN)[C@@H](O)[C@H](O)[C@H]3N)[C@H]2O)O1 [drawing 888]											1 µg/mL (≈ 1.67 µM)	0.5 µg/mL (≈ 0.835 µM)	0.5 µg/mL	0.5 µg/mL (≈ 0.835 µM)	16 µg/mL (≈ 26.7 µM)	0.5 µg/mL (≈ 0.835 µM)	> 64 µg/mL	0.5 µg/mL (≈ 0.835 µM)	4 µg/mL (≈ 6.68 µM)	> 64 µg/mL
CCC(N)C1CCC(N)C(OC2C(N)CC(N)C(O)C2OC2OC(CO)C(OC3OC(CN)C(O)C(O)C3N)C2O)O1 (centres unmarked) [drawing 860]	2 µg/mL	1.4 µg/mL	0.71 µg/mL	1 µg/mL	1.3 µg/mL	1 µg/mL	>64 µg/mL	1 µg/mL	3.2 µg/mL	>64 µg/mL										
CC(N)C1CCC(N)C(OC2C(N)CC(N)C(O)C2OC2OC(CO)C(OC3OC(CN)C(O)C(O)C3N)C2O)O1 (centres unmarked) [drawing 858]	2 µg/mL	1 µg/mL	1 µg/mL	1 µg/mL	1 µg/mL	1 µg/mL	>64 µg/mL	0.5 µg/mL	1.4 µg/mL	>64 µg/mL										
CC(N)C1CCC(N)C(OC2C(N)CC(N)C(O)C2OC2OC(CO)C(OC3OC(CN)C(O)C(O)C3N)C2O)O1 (centres unmarked) [drawing 857]	1.4 µg/mL	1 µg/mL	0.84 µg/mL	0.84 µg/mL	1 µg/mL	0.71 µg/mL	64 µg/mL	0.71 µg/mL	1.5 µg/mL	>64 µg/mL										
CCC(N)C1CCC(N)C(OC2C(N)CC(N)C(O)C2OC2OC(CO)C(OC3OC(CN)C(O)C(O)C3N)C2O)O1 (centres unmarked) [drawing 861]	1.4 µg/mL	2 µg/mL	1 µg/mL	1 µg/mL	1 µg/mL	0.5 µg/mL	>64 µg/mL	0.5 µg/mL	5.7 µg/mL	>64 µg/mL										
NCC1OC(OC2C(CO)OC(OC3C(O)C(N)CC(N)C3OC3OC(CN)C(O)C(F)(F)C3N)C2O)C(N)C(O)C1O (centres unmarked) [drawing 870]	5 µg/mL	4 µg/mL	2 µg/mL	4 µg/mL	>64 µg/mL	4 µg/mL	>64 µg/mL	8 µg/mL	32 µg/mL	>64 µg/mL										
NCC1OC(OC2C(CO)OC(OC3C(O)C(N)CC(N)C3OC3OC(CN)C(F)(F)C(O)C3N)C2O)C(N)C(O)C1O (centres unmarked)	2 µg/mL	2 µg/mL	1 µg/mL	1.4 µg/mL	16 µg/mL	4 µg/mL	>64 µg/mL	1 µg/mL	4 µg/mL	64 µg/mL										
NC[C@@H]1O[C@H](O[C@H]2[C@@H](O)[C@H](O[C@@H]3[C@@H](O)[C@H](N)C[C@H](N)[C@H]3O[C@H]3O[C@H](CN)[C@@H](O)[C@H](O)[C@H]3N)O[C@@H]2CO)[C@H](N)[C@@H](O)[C@@H]1O [NEO, neomycin B, reference compound]	1 µg/mL	0.76 µg/mL	0.79 µg/mL	0.64 µg/mL	1.6 µg/mL	18 µg/mL	>64 µg/mL	2.2 µg/mL	0.75 µg/mL	80 µg/mL										
NCC1OC(OC2C(CO)OC(OC3C(O)C(N)CC(N)C3OC3OC(CN)C(O)C(F)C3N)C2O)C(N)C(O)C1O (centres unmarked) [drawing 866]	1.3 µg/mL	1.4 µg/mL	0.71 µg/mL	0.63 µg/mL	8 µg/mL	1 µg/mL	>64 µg/mL	8 µg/mL	1.4 µg/mL	>64 µg/mL										
